Test [1] deals with TRPC5. The settings on record: TRPC5 inhibition; cited from earlier work.
The subject of test [2] is TRPC5. The settings on record: TRPC5 inhibition; cited from earlier work. This is another data set of the same source.
In test [3] the target is T1, hTRPC5-T478C (Homo sapiens, UniProt Q9UL62).
T1 sequence (Q9UL62 1-973): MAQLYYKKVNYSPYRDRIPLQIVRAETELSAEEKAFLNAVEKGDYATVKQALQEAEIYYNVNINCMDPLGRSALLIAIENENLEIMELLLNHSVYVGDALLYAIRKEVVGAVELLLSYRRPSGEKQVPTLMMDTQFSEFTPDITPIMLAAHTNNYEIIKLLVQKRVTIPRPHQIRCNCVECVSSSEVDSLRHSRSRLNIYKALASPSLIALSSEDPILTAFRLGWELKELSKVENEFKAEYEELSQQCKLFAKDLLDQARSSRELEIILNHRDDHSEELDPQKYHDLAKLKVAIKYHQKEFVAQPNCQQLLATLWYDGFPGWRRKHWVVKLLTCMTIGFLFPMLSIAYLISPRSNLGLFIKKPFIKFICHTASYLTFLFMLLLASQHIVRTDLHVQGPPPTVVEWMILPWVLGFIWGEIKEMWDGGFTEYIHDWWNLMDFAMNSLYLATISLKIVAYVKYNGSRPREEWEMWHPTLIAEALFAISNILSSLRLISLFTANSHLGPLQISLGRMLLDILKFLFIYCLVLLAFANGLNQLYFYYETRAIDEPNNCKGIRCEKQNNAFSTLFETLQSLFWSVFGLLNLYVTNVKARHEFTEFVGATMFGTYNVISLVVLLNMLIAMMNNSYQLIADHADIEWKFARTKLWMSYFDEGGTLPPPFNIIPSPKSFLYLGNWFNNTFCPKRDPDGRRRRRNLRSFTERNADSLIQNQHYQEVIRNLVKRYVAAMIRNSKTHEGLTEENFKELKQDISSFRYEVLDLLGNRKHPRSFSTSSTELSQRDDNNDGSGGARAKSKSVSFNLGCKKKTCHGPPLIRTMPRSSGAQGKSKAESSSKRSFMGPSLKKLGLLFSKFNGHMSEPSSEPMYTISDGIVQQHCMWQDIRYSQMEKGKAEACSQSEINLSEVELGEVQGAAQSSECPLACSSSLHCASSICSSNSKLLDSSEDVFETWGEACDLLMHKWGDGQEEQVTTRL
Put plainly: hTRPC5-T478C FLIPR calcium flux IC50 assay. The class given is cell-based. The settings on record: hTRPC5-T478C-HEK cells, Englerin A as channel agonist. On the procedure:
(§1) Cell culture: hTRPC5-T478C-HEK cells were cultured in a humid environment in 5% CO2 at 37° C.
(§2) Cell culture medium ingredients: • DMEM, Supplier: Gibco, Catalog No. 11965-092; • FBS, Supplier: Gibco, Catalog No. 10099-141C, Concentration: 10%; • Pen/Strep, Supplier: Invitrogen, Catalog No. 15140-122, Concentration: 1%; • Zeocin, Supplier: Invitrogen, Catalog No. R25005, Concentration: 200 μg/mL; • Blasticidin S, Supplier: Invitrogen, Catalog No. R21001, Concentration: 5 μg/mL.
(§3) In general, the TRPC5-T478C cell line was passaged three times weekly. The dilution factor for each passage was 1:3. Once the cells reached about 80% confluence in the T-75 flask, the cell line was digested with trypsin for about 1 minute and the cell suspension was removed from the flask with a pipette. Depending on the dilution ratio, the removed cell suspension would be transferred to another T-75 flask containing cell culture medium. Note that in order to maintain the logarithmic growth of the cells, the confluence of the cells should be maintained at the subconfluent stage and the cells should be passaged once every 2 to 3 days depending on the proliferation rate of the cell line.
(1) Preparation of cell plate: the cells were separated according to the above-mentioned passaging and the cell density and viability were determined using a cell counter. The volume of the cell suspension was adjusted with a cell culture medium. After the density reached to the plating density, 1 μg/mL tetracycline was added to induce hTRPC5-T478C channel expression. The induced hTRPC5-T478C cells were then seeded onto poly-D-lysine (PDL)-coated 384-well plates at a density of 20000 cells/well (30 μL/well). Then the cells were cultured overnight in a cell culture incubator.
(2) Preparation of compound plate: the compounds were generally diluted with DMSO, prepared into a mother liquor and stored in a −20° C. refrigerator. A compound plating program was set on the ECHO processor, and the compounds were plated with ECHO according to the concentration gradient that was already set. In general, 9 concentrations were included with the highest concentration at 10 μM, 3-fold dilution, and 2 replicate wells. Englerin A was used as the channel agonist.
(3) On-machine testing: the cell plates and compound plates were prepared according to the above-mentioned methods. After the cell confluence of the cell plate reached 80%-90%, the cells were removed from the incubator and the testing started. Ca5 dye (Molecular Devices #R8185) was formulated with test buffer. After the cell plate culture medium was removed with Bravo, 25 μL of Ca5 dye was added to each well, and the plate was incubated for 1 hour. After 1 hour, the cell plate and compound plate were placed in FLIPR^TETRA (Molecular Devices, USA) for FLIPR detection.
Data analysis was performed using Excel 2013 (Microsoft, USA) software and GraphPad Prism 6.01 software. The maximum signal was generated by FLIPR software. Data analysis was performed using Excel (2013) and Prism 6.01. Data quality and data stability were controlled using S/B>2.50 and Z factor>0.50. The calculation formula was as follows: S/B=Avg100%/Avg0%; Z factor=1−(3*SD100%+3*SDO %)/|Avg100%-Avg0%.

In test [4] the target is T1, hTRPC5-T478C. Put plainly: hTRPC5-T478C patch clamp IC50 assay. The class given is cell-based. The settings on record: hTRPC5-T478C-HEK cells, whole-cell patch clamp, Englerin A agonist. On the procedure: as §1, §2, §3
(1) Extracellular fluid: sodium chloride (145 mmol/L), potassium chloride (4 mmol/L), magnesium chloride (1.5 mmol/L), glucose (10 mmol/L), hydroxyethyl piperazineethanesulfonic acid (HEPES, 10 mmol/L). The extracellular fluid was adjusted to pH 7.4 with NaOH, and the osmotic pressure was adjusted to about 305 mOsm/L with pure water or sucrose.
(2) Intracellular fluid: cesium chloride (140 mmol/L), ethylene glycol diethyl ether diamine tetraacetic acid (EGTA, 1 mmol/L), magnesium chloride (2 mmol/L), glucose (10 mmol/L), hydroxyethyl piperazineethanesulfonic acid (HEPES, 10 mmol/L). The intracellular fluid was adjusted to pH 7.2 with […], and the osmotic pressure was adjusted to about 295 mOsm/L with pure water or sucrose.
(3) The extracellular fluid was required to be formulated once a week, and the intracellular fluid was required to be subpackaged and stored at −20° C. after formulation.
Positive reference compounds Englerin A and 2-aminoethoxydiphenyl borate (2-APB) were dissolved in 100% DMSO and stored as a 10 mM working solution after formulation. The test compounds were dissolved in 100% DMSO and stored as a 10 mM working solution after formulation. The final concentration of DMSO in the test solution should be less than 0.3%.
Whole-cell patch clamping was performed at room temperature. The electrical signals recorded using an EPC 10 USB amplifier (HEKA Elektronik, Germany) were low-pass filtered at 3 kHz and finally recorded in PatchMaster 2×90.5 software (HEKA Elektronik, Germany). In this step, the quality control standards were that the cell high-resistance seal was formed at a value greater than 500 MOhms and the detection current was greater than 0.3 nA.
The recording electrode was a borosilicate glass capillary (GC150tF-10, Harvard Apparatus Co., UK), which was pulled by a vertical puller (NARISHIGE PC-10, Japan) and polished. In this step, the quality control standard was that the electrode resistance was between 2 to 5 MΩ.
During whole-cell patch clamp recordings, a continuous filling system (BT100-2J, LongerPump, China) was used to continuously perfuse extracellular fluid. The filling system was mounted on the stage of an upright microscope (FN—S2N, Nikon, Japan), and the filling tip was manually positioned under the microscope.
The voltage instructions for hTRPC5-T478C current amplitude detection were as follows: the cells were clamped as follows: the clamping potential changed in a stepped manner from −40 mV to −80 mV (duration: 50 ms); then the clamping voltage ramped up to +80 mV, and the whole process lasted for 200 ms; then clamping was performed at +80 mV for 50 ms, and finally, the voltage returned to the clamping potential of −40 mV. […]

The structures appear in SMILES notation.

`c1ccc(Cn2c(NCc3ccco3)nc3ccccc32)cc1` [AC1903]: in the test with TRPC5 [1], the podocyte cytoskeletal remodeling result is given as “protects” and the “protamine sulfate-induced podocyte injury” value is recorded as “inhibits”. Moreover, the LPS-induced proteinuria entry in the test with TRPC5 [2] is recorded as “significantly reduces”.
For `C=C(c1ccc(F)cc1C(F)(F)F)c1ncnc2c1CCN(c1cn[nH]c(=O)c1Cl)C2` [Compound WX003], the IC50 on hTRPC5-T478C [3] turned out to be 0.07 µM; on hTRPC5-T478C [4], 0.0894 µM.
Turning to `CC(O)c1nc2c(c(Sc3ccc(F)cc3C(F)(F)F)n1)CCN(c1cn[nH]c(=O)c1Cl)C2` (stereo not shown) [Compound WX014], the IC50 on hTRPC5-T478C [3] was determined as 0.012 µM.
On to `O=c1[nH]ncc(N2CCc3c(ncnc3Sc3ccc(F)cc3Cl)C2)c1Cl` [Compound WX017], for which the IC50 at hTRPC5-T478C [3] is 0.056 µM.
Take `Cc1cc(N2CCCCC2)nc2ccccc12` [ML204]: in the test with TRPC5 [1], the podocyte cytoskeletal remodeling entry is “protects” and the “protamine sulfate-induced podocyte injury” value was “inhibits”. Besides, the LPS-induced proteinuria result in the test with TRPC5 [2] was “significantly reduces”.

Usually IC50 stands for the point on the concentration scale where inhibition reaches its midpoint.

These data come from patent US20250122190A1, “HALOGEN-SUBSTITUTED PYRIDAZINONE COMPOUND AND APPLICATION THEREOF” (MEDSHINE DISCOVERY INC., priority 2021, published 2025).
